According to patent US11992497B2 (priority 2021, dated 2024):

Key:
[1] = tested on: HCT116; test: GI50 by clonogenic assay; assay type: cell-based; conditions: Homo sapiens
Experimental: (§1) For colonogenic assay, the compounds were tested at 4 concentrations for 1 week or 2 weeks on 4 colon cancer cell lines. The compounds, concentrations, colon cancer cell line panel and end time point tested are the following: • CBG: 0 μM, 10 μM, 20 μM, 40 μM, and 80 μM. • Compound 1: 0 μM, 5 μM, 7.5 μM, 10 μM, and 20 μM. • Compound 2: 0 μM, 10 μM, 20 μM, 40 μM, and 80 μM. • Colon cancer cell line panel and end time point: SW620, HCT15, HCT116, 1 week; HT29, 2 weeks
(§2) Four colon cancer cell lines of SW620, HCT15, HT29, and HCT116 were included in the colon cancer cell line panel.
(§3) CBG, compound 1 and compound 2 were dissolved in DMSO at a concentration of 10 mM and stored at −20° C.
(§4) Evaluation of DM compounds treatment-induced growth inhibition was performed to determine the GI50 of four colon cancer cell lines with MTS assay or clonogenic assay. Each experiment was repeated in triplicate. In GraphPad Prism, data were log-transformed and fit with a nonlinear curve to calculate the GI50.
(§5) Clonogenic assay. cells were plated at 6 well plates at a density of 2,500 cells per well. After 24 hours, cells were treated with DM compounds at increasing concentrations or DMSO vehicle and incubated for 1 week or 2 weeks. Cells were then fixed and stained with 1% crystal violet (Sigma-Aldrich) solution. Quantification was performed using ImageJ. Each experiment was repeated in triplicate. In GraphPad Prism, data were log-transformed and fit with a nonlinear curve to calculate the GI50.

[2] = tested on: HT29; test: GI50 by clonogenic assay; assay type: cell-based; conditions: Homo sapiens
Experimental: as §1, §2, §3, §4, §5

[3] = tested on: SW620; test: GI50 by clonogenic assay; assay type: cell-based; conditions: Homo sapiens
Experimental: as §1, §2, §3, §4, §5

[4] = tested on: HCT15; test: GI50 by clonogenic assay; assay type: cell-based; conditions: Homo sapiens
Experimental: as §1, §2, §3, §4, §5

[5] = tested on: HCT116; test: GI50 by MTS assay; assay type: cell-based; conditions: Homo sapiens, HCT-116; HCTl116 cells, 48 hours; read-out: GI50 (MTS assay)
Experimental: (§6) For MTS assay, the compounds have been tested at 8 concentrations on 4 colon cancer cell lines for 48 hours. The compounds, concentrations and colon cancer cell line panel tested are the following: • CBG: 0 μM, 1.25 μM, 2.5 μM, 5 μM, 10 μM, 20 μM, 40 μM, and 80 μM. • Compound 1: 0 μM, 1.25 μM, 2.5 μM, 5 μM, 10 μM, 20 μM, 40 μM, and 80 μM. • Compound 2: 0 μM, 1.25 μM, 2.5 μM, 5 μM, 10 μM, 20 μM, 40 μM, and 80 μM. • Colon cancer cell line panel: SW620, HCT15, HT29, HCTl16
as §2, §3, §4
(§7) MTS assay. cells were plated at 96 well plates at a density of 1,000 cells per well. After 24 hours, cells were treated with DM compounds at increasing concentrations or DMSO vehicle and incubated for 48 hours. 20 μl of MTS reagent (Promega) was then added and incubated for 2 hours. The absorbance was measured with a microplate reader at 490 nm. Each experiment was repeated in triplicate. In GraphPad Prism, data were log-transformed and fit with a nonlinear curve to calculate the GI50.

[6] = tested on: HT29; test: GI50 by MTS assay; assay type: cell-based; conditions: Homo sapiens, HT-29
Experimental: as §6, §2, §3, §4, §7

[7] = tested on: SW620; test: GI50 by MTS assay; assay type: cell-based; conditions: Homo sapiens, SW-620
Experimental: as §6, §2, §3, §4, §7

[8] = tested on: HCT15; test: GI50 by MTS assay; assay type: cell-based; conditions: Homo sapiens, HCT-15
Experimental: as §6, §2, §3, §4, §7

[9] = PK study of CBG, Compound 1 and Compound 2, PO or IP; assay type: in vivo, male Sprague Dawley rats; conditions: CBG 30 mg/kg PO and IP; Compound 1 31.5 mg/kg PO; Compound 2 32.7 mg/kg PO
Experimental: This study evaluated the pharmacokinetics of (E)-2-(3,7-dimethylocta-2,6-dien-1-yl)-3-methoxy-5-pentylphenol (1) and (E)-2-(3,7-dimethylocta-2,6-dien-1-yl)-1,3-dimethoxy-5-pentylbenzene (2) following oral (PO) or intraperitoneal (IP) administration to male Sprague Dawley rats.
For the oral formulation the test article was added to the appropriate amount of Maisine and stirred until uniform. Next Labrasol was added to the formulation and allowed to stir until uniform. Finally, water will be slowly added to the stirring formulation to achieve the final volume.
For the IP formulation the test article was added to the appropriate amount of ethanol and stirred until uniform. Next, the appropriate amount of tween-20 was added to the stirred formulation. Finally, the appropriate amount of saline was slowly added to the stirred formulation to achieve the final volume.
Animals were fasted the evening prior to dosing with food returned at 4 h postdose, and the animals weighed on the morning of dose administration.
IP doses were administered via injection to the intraperitoneal region. PO doses were delivered into the stomach via syringe and gavage tube.
Blood was collected from via direct jugular stick or from the tail vein. Blood samples were kept on ice until being centrifuged at 3200 RPM for 10 minutes at ˜5° C. within 1 h of collection. Plasma was split into 2 cryovials in approximately equal volumes (0.05 mLs) and stored at −20° C.±5° C. until shipment.

For `CCCCCc1cc(O)c(C/C=C(\C)CCC=C(C)C)c(OC)c1` [Compound 1, (E)-2-(3,7-dimethylocta-2,6-dien-1-yl)-3-methoxy-5-pentylphenol], the GI50 ([1]; HCT-116, 168 h, HCT116 cells, 1 week, read-out: GI50 (clonogenic assay)) was 5.51 ± 1.51 µM, the GI50 ([1]; HCT-116, clonogenic assay, HCT116, average of N1-N3, read-out: GI50 AVG) was 5.51 µM and the GI50 ([1]; HCT-116, clonogenic assay, HCT116, replicate N1, read-out: GI50 N1) was 4.79 µM. The GI50 ([1]; HCT-116, clonogenic assay, HCT116, replicate N2, read-out: GI50 N2) was 7.61 µM, the GI50 ([1]; HCT-116, clonogenic assay, HCT116, replicate N3, read-out: GI50 N3) was 4.12 µM and the GI50 ([2]; HT-29, 336 h, HT29 cells, 2 weeks, read-out: GI50 (clonogenic assay)) was 2.95 ± 1.41 µM. For the same compound, the GI50 ([2]; HT-29, clonogenic assay, HT29, average of N1-N3, read-out: GI50 AVG) was 2.95 µM, the GI50 ([2]; HT-29, clonogenic assay, HT29, replicate N1, read-out: GI50 N1) was 1.33 µM and the GI50 ([2]; HT-29, clonogenic assay, HT29, replicate N2, read-out: GI50 N2) was 3.87 µM. For the same compound, the GI50 ([2]; HT-29, clonogenic assay, HT29, replicate N3, read-out: GI50 N3) was 3.66 µM, the GI50 ([3]; SW-620, 168 h, SW620 cells, 1 week, read-out: GI50 (clonogenic assay)) was 5.35 ± 1.11 µM and the GI50 ([3]; SW-620, clonogenic assay, SW620, average of N1-N3, read-out: GI50 AVG) was 5.35 µM. It also gave a GI50 ([3]; SW-620, clonogenic assay, SW620, replicate N1, read-out: GI50 N1) of 5.76 µM, a GI50 ([3]; SW-620, clonogenic assay, SW620, replicate N2, read-out: GI50 N2) of 4.09 µM and a GI50 ([3]; SW-620, clonogenic assay, SW620, replicate N3, read-out: GI50 N3) of 6.2 µM. For the same compound, the GI50 ([4]; HCT-15, 168 h, HCT15 cells, 1 week, read-out: GI50 (clonogenic assay)) was 5.03 ± 2.16 µM, the GI50 ([4]; HCT-15, clonogenic assay, HCT15, average of N1-N3, read-out: GI50 AVG) was 5.03 µM and the GI50 ([4]; HCT-15, clonogenic assay, HCT15, replicate N1, read-out: GI50 N1) was 3.64 µM. The GI50 ([4]; HCT-15, clonogenic assay, HCT15, replicate N2, read-out: GI50 N2) was 7.52 µM, the GI50 ([4]; HCT-15, clonogenic assay, HCT15, replicate N3, read-out: GI50 N3) was 3.94 µM and the GI50 [5] was 10.3 ± 0.24 µM. The GI50 ([6]; HT29 cells, 48 hours, read-out: GI50 (MTS assay)) was 10.2 ± 0.4 µM, the GI50 ([6]; MTS assay, HT29, 48 hours, average of N1-N3, read-out: GI50 AVG) was 10.2 µM and the GI50 ([6]; MTS assay, HT29, 48 hours, replicate N1, read-out: GI50 N1) was 9.84 µM. The GI50 ([6]; MTS assay, HT29, 48 hours, replicate N2, read-out: GI50 N2) was 10.1 µM, the GI50 ([6]; MTS assay, HT29, 48 hours, replicate N3, read-out: GI50 N3) was 10.6 µM and the GI50 ([7]; MTS assay, SW620, 48 hours, average of N1-N3, read-out: GI50 AVG) was 8.76 µM. The GI50 ([7]; MTS assay, SW620, 48 hours, replicate N1, read-out: GI50 N1) was 8.47 µM, the GI50 ([7]; MTS assay, SW620, 48 hours, replicate N2, read-out: GI50 N2) was 7.55 µM and the GI50 ([7]; MTS assay, SW620, 48 hours, replicate N3, read-out: GI50 N3) was 10.3 µM. For the same compound, the GI50 ([7]; SW620 cells, 48 hours, read-out: GI50 (MTS assay)) was 8.76 ± 1.38 µM, the GI50 ([8]; HCT15 cells, 48 hours, read-out: GI50 (MTS assay)) was 10 ± 0.52 µM and the GI50 ([8]; MTS assay, HCT15, 48 hours, average of N1-N3, read-out: GI50 AVG) was 10 µM. For the same compound, the GI50 ([8]; MTS assay, HCT15, 48 hours, replicate N1, read-out: GI50 N1) was 10.1 µM, the GI50 ([8]; MTS assay, HCT15, 48 hours, replicate N2, read-out: GI50 N2) was 9.46 µM and the GI50 ([8]; MTS assay, HCT15, 48 hours, replicate N3, read-out: GI50 N3) was 10.5 µM. The “glucuronidation / glucuronide formation in plasma (in words)” value [9] was “significantly reduced levels of glucuronidation compared to CBG”.
